# Counter-ions that a name gives are not always drawn.
# Biological target: T1, mouse glycolate oxidase (mGO) (Mus musculus, UniProt Q9WU19)
# T1 construct: His6 (N); made in house; host or cells: E. coli BL21 (DE3)
# T1 sequence (Q9WU19 1-370): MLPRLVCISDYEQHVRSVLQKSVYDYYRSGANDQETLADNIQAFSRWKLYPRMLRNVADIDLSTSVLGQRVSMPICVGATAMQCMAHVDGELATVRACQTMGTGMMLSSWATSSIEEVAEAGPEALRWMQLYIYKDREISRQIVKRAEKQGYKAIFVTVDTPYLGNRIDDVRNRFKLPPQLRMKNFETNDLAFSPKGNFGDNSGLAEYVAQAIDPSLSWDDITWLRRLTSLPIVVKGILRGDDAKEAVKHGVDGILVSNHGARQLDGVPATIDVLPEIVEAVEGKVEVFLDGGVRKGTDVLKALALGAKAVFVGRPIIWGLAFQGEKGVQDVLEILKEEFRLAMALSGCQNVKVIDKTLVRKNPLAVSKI
# Assay: In vitro inhibition of mouse glycolate oxidase (mGO), HRP-coupled Trinder reaction
# Assay type: biochemical
# Settings: compound tested at 100 μM; 40 mM glycolic acid as substrate; activity calculated at 1 minute
# Method: Protein expression. BL21 (DE3) E. coli transformed with recombinant pET-15b expression vector containing mouse Hao1 cDNA with an N-terminal His6 tag was grown in LB medium in the presence of 0.1 mg/mL ampicillin. For purification of recombinant mGO expressed in BL21 E. coli, bacteria pellets were thawed and re-suspended in 2 mL lysis buffer (50 mM NaH2PO4, 300 mM NaCl, 10 mM imidazole, 50 μM flavin mononucleotide (FMN), pH 7.5), and then treated for 30 minutes with 1 mM phenylmethylsulfonyl fluoride (PMSF) for protease inhibition, 0.1% Triton X-100 and 0.2 mg/mL lysozyme to break cellular membranes. After sonication, cells were centrifuged and the supernatant containing the total cellular extract (pre-column fraction) was loaded into a Ni-NTA agarose column, and incubated for 30 minutes at 4° C. to allow binding. The column was washed with two bed volumes of lysis buffer with 20 mM imidazole to eliminate unbound proteins (wash fraction). mGO was eluted using the same buffer containing 300 mM imidazole. Fractions containing purified GO were dialyzed against 300 mL of dialysis buffer (50 mM NaH2PO4, 300 mM NaCl, pH 7.5) at 4° C. with agitation overnight, and then kept at 4° C. in darkness. Protein was quantified by the bicinchoninic acid (BCA) assay.
# Inhibition assays. Enzymatic activity of mGO was determined in the presence of glycolate as substrate (40 mM glycolic acid) and phosphate buffer (50 mM KPO4, 0.1 mM EDTA, pH 7). The production of glyoxylate was indirectly measured by the quantification of hydrogen peroxide formed during the first oxidation reaction. This hydrogen peroxide reacted with 4.9 mM 4-aminoantipyrine and 0.1 mM sulphonated […] in a coupled horseradish peroxidase (HRP) reaction that yields a quinoneimine dye (FIG. 1) measured at 515 nm (Trinder reaction). Enzymatic activity was calculated at 1 minute after initiation of the Trinder reaction.
row,inhibition at 100 µM [%],SMILES
1,30 to 60,"O=C(O)c1nnccc1Cc1ccc(F)cc1 [Compound 19, 4-(4-Fluorobenzyl) pyridazine-3-carboxylic Acid]"
2,30 to 60,"Cc1onc(C(=O)O)c1NCc1ccc(F)cc1 [Compound 29, 4-((4-Fluorobenzyl)amino)-5-methylisoxazole-3-carboxylic Acid]"
3,< 30,"Cc1onc(C(=O)O)c1Cc1ccc(Br)cc1 [Compound 2, 4-(4-Bromobenzyl)-5-methylisoxazole-3-carboxylic Acid]"
4,< 30,"Cc1[nH]nc(C(=O)O)c1Nc1ccc(CCc2ccc(F)cc2)cc1 [Compound 66, 4-((4-(4-Fluorophenethyl)phenyl)amino)-3-methyl-1H-pyrazole-5-carboxylic Acid]"
5,> 60,"O=C(O)c1nnsc1Nc1cccc(Br)c1 [Compound 23, 5-((3-Bromophenyl)amino)-1,2,3-thiadiazole-4-carboxylic Acid]"
6,30 to 60,"Cc1snc(C(=O)O)c1Nc1ccc(Br)cc1 [Compound 34, 4-((4-Bromophenyl)amino)-5-methylisothiazole-3-carboxylic Acid]"
7,30 to 60,"CCCCCC(Sc1c(C(=O)O)noc1C)c1ccc(F)cc1 (stereo not drawn) [Compound 75, 4-((1-(4-fluorophenyl)hexyl)thio)-5-methylisoxazole-3-carboxylic Acid]"
8,> 60,"O=C(O)c1nnsc1Nc1cccc(-c2ccccn2)c1 [Compound 52, 5-((3-(pyridin-2-yl)phenyl)amino)-1,2,3-thiadiazole-4-carboxylic Acid Na Salt]"
9,> 60,"O=C(O)c1nnsc1Nc1ccc(-n2cccn2)cc1 [Compound 20, 5-((4-(1H-Pyrazol-1-yl)phenyl)amino)-1,2,3-thiadiazole-4-carboxylic Acid]"
10,30 to 60,"Cc1onc(C(=O)O)c1Nc1ccc(CCc2ccc(F)cc2)cc1 [Compound 56, 4-((4-(4-fluorophenethyl)phenyl)amino)-5-methylisoxazole-3-carboxylic Acid]"
11,< 30,"Cc1[nH]nc(C(=O)O)c1Cc1ccc(F)cc1 [Compound 12, 5-Methyl-4-(4-fluorobenzyl) 1H-pyrazole-3-carboxylic Acid]"
12,30 to 60,"Cc1onc(C(=O)O)c1Nc1ccc(Oc2ccc(C#N)cc2)cc1 [Compound 53, 4-((4-(4-cyanophenoxy)phenyl)amino)-5-methylisoxazole-3-carboxylic Acid]"
13,< 30,"Cc1onc(C(=O)O)c1SCc1ccccc1 [Compound 51, 4-(Benzylthio)-5-methylisoxazole-3-carboxylic Acid]"
14,> 60,"COc1ccc(CN(c2ccc(CCc3ccc(F)cc3)cc2)c2c(C(=O)O)n[nH]c2C)cc1 [Compound 67, 4-((4-(4-Fluorophenethyl)phenyl)(4-methoxybenzyl)amino)-3-methyl-1H-pyrazole-5-carboxylic Acid]"
15,30 to 60,"Cc1onc(C(=O)O)c1Cc1ccc(-c2ccc(C#N)cc2)cc1 [Compound 1, 4-((4′-Cyano-[1, 1′-biphenyl]-4-yl)methyl)-5-methylisoxazole-3-carboxylic Acid]"
16,30 to 60,"Cc1snc(C(=O)O)c1NCc1ccc(F)cc1 [Compound 37, 4-((4-Fluorobenzyl)amino)-5-methylisothiazole-3-carboxylic Acid]"
17,30 to 60,"Cc1onc(C(=O)O)c1Cc1ccc(Oc2ccccc2)cc1 [Compound 6, 5-Methyl-4-(4-phenoxybenzyl) isoxazole-3-carboxylic Acid]"
18,< 30,"O=C(O)c1nnsc1Cc1ccc(F)cc1 [Compound 16, 5-(4-Fluorobenzyl)-1,2,3-thiadiazole-4-carboxylic Acid]"
19,30 to 60,"Cc1onc(C(=O)O)c1Sc1ccc(F)cc1 [Compound 46, 4-((4-Fluorophenyl)thio)-5-methylisoxazole-3-carboxylic Acid]"
20,30 to 60,"Cc1n[nH]c(C(=O)O)c1N(Cc1ccc(F)cc1)Cc1ccc(F)cc1 [Compound 44, 4-(bis(4-Fluorobenzyl)amino)-3-methyl-1H-pyrazole-5-carboxylic Acid]"
21,> 60,"O=C(O)c1nnsc1Nc1ccc(F)cc1 [Compound 22, 5-((4-Fluorophenyl)amino)-1,2,3-thiadiazole-4-carboxylic Acid]"
22,< 30,"Cc1onc(C(=O)O)c1Nc1ccc(C#N)cc1 [Compound 30, 4-((4-Cyanophenyl)amino)-5-methylisoxazole-3-carboxylic Acid]"
23,< 30,"Cc1snc(C(=O)O)c1Cc1ccc(F)cc1 [Compound 13, 4-(4-Fluorobenzyl)-5-methylisothiazole-3-carboxylic Acid]"
24,< 30,"CCCC/C=C(/SC1=C(C(=O)O)NNC=C1)c1ccc(F)cc1 [Compound 78, (E)-4-((1-(4-Fluorophenyl)hex-1-en-1-yl)thio)-1,2-dihydropyridazine-3-carboxylic Acid]"
25,< 30,"O=C(O)c1nnccc1NCc1ccc(F)cc1 [Compound 50, sodium salt, 4-((4-Fluorobenzyl)amino)pyridazine-3-carboxylic Acid, sodium Salt]"
26,30 to 60,"Cc1onc(C(=O)O)c1NCc1ccc(Oc2ccc(C#N)cc2)cc1 [Compound 31, 4-((4-(4-Cyanophenoxy)benzyl)amino)-5-methylisoxazole-3-carboxylic Acid]"

row,SMILES,inhibition at 100 µM [%]
1,"CC(C)(C)OC(=O)N1CCC(CCOc2ccc(Cc3ccc(Nc4ccnnc4C(=O)O)cc3)cc2)CC1 [Compound 70, 4-((4-(4-(2-(1-(tert-Butoxycarbonyl)piperidin-4-yl)ethoxy)benzyl)phenyl)amino)pyridazine-3-carboxylic Acid]",> 60
